Test results reported in patent publication US11174303B2, “Single-chain insulin analogues stabilized by a fourth disulfide bridge” (Case Western Reserve University, priority 2017, dated 2021).
Positions of bridges follow the written chain, without caps; N, C: chain ends. No end group written: not given here.

Legend:
[1] = in vivo
[2] = target: A isoform of the insulin receptor (Homo sapiens, UniProt P06213); assay type: binding
Description: The receptor binding affinity of analogue 81-04 and analogue 4SS 81-04 was also determined. The affinity of 4SS 81-04 for the A isoform of the insulin receptor was determined to be 120±20 percent relative to human insulin (and may in fact be the same as wild type human insulin given the error present; data not shown). […] Such impaired binding to IGF-1R is desirable from the perspective of potential carcinogenesis on long-term use.

[3] = system: Sprague-Dawley rats made diabetic with streptozotocin; test: Stability under extreme conditions (95° C. for 30 min, gentle agitation), read out as glucose lowering after IV bolus in diabetic rats; assay type: in vivo, rat
Description: Heat stressed insulin was given gentle agitation at 95° C. for 30 min. Doses for SCIs (nominally 1 IU/rat IV) were calculated in equivalent nanomoles protein/μl.
FIG. 3C is a graph of mean blood-glucose concentrations over time in Sprague-Dawley rats made diabetic with streptozotocin after IV bolus injection of fresh or heat-stressed SCIs on gentle agitation at 95° C. for 30 min (N=4; mean glycemia ca. 400 mg/dl). Symbol code: (filled triangle, ▴) fresh SCI-1; (open triangle, ? ) heated SCI-1; (filled square, ? ) fresh insulin lispro as positive control and (filled circle, ? ) Lilly diluent (i.e., buffer only) as negative control. Doses for SCIs (nominally 1 IU/rat IV) were calculated in equivalent nanomoles protein/μl.
FIG. 3D is a graph of the change in blood-glucose concentrations normalized to initial blood glucose concentration over time in Sprague-Dawley rats made diabetic with streptozotocin after IV bolus injection of fresh or heat-stressed SCIs on gentle agitation at 95° C. for 30 min (N=4; mean glycemia ca. 400 mg/dl). Symbol code: (filled triangle, ▴) fresh SCI-1; (open triangle, ? ) heated SCI-1; (filled square, ? ) fresh insulin lispro as positive control; and (filled circle, ? ) Lilly diluent (i.e., buffer only) as negative control. Doses for SCIs (nominally 1 IU/rat IV) were calculated in equivalent nanomoles protein/μl.
To evaluate the biological activity, potency, duration of signaling, and thermal stability of the analogues in an animal model, male Sprague-Dawley rats (mean body mass ˜300 grams) were rendered diabetic by treatment with streptozotocin (STZ). […] A control was provided by injection of protein-free Lilly diluent (obtained from Eli Lilly and Co.) composed of 16 mg glycerin, 1.6 mg meta-cresol, 0.65 mg phenol, and 3.8 mg sodium phosphate pH 7.4. The activity of SCI-1 was evaluated in relation to that of Humalog® (U-100 strength taken from an unexpired commercial vial). […] Blood was obtained from the clipped tip of the tail at time 0 and every 10 minutes up to 360 min. […]

Sequence of A isoform of the insulin receptor (P06213 28-746 isoform P06213-2 limits assumed): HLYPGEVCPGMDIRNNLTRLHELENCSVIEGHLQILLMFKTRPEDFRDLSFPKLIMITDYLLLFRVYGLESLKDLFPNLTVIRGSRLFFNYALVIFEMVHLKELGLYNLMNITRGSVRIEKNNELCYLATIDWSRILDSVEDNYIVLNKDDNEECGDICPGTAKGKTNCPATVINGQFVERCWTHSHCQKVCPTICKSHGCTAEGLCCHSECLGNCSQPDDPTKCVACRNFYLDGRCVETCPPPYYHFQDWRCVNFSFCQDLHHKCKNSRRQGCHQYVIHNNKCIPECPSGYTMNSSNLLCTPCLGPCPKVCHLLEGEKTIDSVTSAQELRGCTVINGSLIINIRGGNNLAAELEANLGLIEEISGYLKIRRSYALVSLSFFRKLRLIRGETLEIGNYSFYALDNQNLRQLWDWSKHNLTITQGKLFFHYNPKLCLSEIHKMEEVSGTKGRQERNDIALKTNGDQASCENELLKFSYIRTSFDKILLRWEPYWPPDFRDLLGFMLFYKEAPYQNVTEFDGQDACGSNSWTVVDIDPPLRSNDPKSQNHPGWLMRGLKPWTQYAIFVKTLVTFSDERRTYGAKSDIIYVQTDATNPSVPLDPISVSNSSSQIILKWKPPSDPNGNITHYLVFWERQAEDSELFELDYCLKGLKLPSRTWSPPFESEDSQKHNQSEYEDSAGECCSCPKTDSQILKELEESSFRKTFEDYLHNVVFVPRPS
Sequence of A isoform of the insulin receptor (P06213 763-1382 partner limits assumed): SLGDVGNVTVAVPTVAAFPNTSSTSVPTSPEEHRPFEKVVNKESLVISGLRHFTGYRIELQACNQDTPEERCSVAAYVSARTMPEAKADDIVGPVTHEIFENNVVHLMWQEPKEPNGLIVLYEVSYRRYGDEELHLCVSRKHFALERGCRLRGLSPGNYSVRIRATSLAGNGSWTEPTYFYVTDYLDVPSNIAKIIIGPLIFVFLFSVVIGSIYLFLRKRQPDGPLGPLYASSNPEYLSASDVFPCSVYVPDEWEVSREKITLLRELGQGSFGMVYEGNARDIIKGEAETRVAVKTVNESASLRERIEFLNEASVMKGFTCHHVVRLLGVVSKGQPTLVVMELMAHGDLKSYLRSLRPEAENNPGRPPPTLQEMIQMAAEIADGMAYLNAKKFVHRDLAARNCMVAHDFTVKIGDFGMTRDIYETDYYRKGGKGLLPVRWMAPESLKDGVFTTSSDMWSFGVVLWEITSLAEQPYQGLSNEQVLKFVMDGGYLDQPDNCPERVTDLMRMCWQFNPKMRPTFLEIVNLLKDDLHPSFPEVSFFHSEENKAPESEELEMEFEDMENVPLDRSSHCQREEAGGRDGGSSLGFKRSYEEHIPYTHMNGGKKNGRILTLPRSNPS

Substance: FVNCHLCGSHLVEALYLVCGERGFFYTPRTEEGSRRSRGIVEQCCRSCCSLYQLENYCN (disulfide 4-48, 7-45, 19-58, 44-49) [SCI-1]
- PK on conventional SQ injection [1]: prolonged PK

Substance: FVNCHLCGSHLVEALYLVCGERGFFYTDPTEEGPRRGIVEQCCHSCCSLEQLENYCN (disulfide 4-46, 7-43, 19-56, 42-47) [SCI-2]
- affinity for the A isoform of the insulin receptor relative to human insulin [2]: 120±20%

Substance: SCI-1 without 4SS: Preliminary version of SCI-1 lacking the 4th disulfide bridge, with Gln at position B4 and Ile at position A10 (FVNQHLCGSHLVEALYLVCGERGFFYTDPTEEGPRRGIVEQCCHSICSLEQLENYCN; disulfide (positions not given here); ends not checked)
- decrement in activity of heated versus fresh sample at 240 min ([3]; 95° C. for 30 min, time point 240 min): ca. 25%
- decrement in activity of heated versus fresh sample at 300 min ([3]; 95° C. for 30 min, time point 300 min): ~40%
- activity after 30 min at 95° C. versus fresh sample ([3]; heat-stressed with gentle agitation at 95° C. for 30 min, nominally 1 IU/rat, N=4): largely (but incompletely) maintained
